Measured values published in patent publication US9453842B2, “Inhibition of peroxidase enzymatic activity” (Roche Molecular Systems, Inc., priority 2006, dated 2016).

Assays:
HRP [1] = target: T1, HRP (Armoracia rusticana, UniProt P00433); test: Inhibition of 1 mU of HRP activity using heavy metal salts and other compounds as stop reagents (ABTS, 96-well plate); conditions: 1 mU HRP; for Absorbance at 405 nm: higher concentration of Table 1
T1 sequence (P00433 31-338): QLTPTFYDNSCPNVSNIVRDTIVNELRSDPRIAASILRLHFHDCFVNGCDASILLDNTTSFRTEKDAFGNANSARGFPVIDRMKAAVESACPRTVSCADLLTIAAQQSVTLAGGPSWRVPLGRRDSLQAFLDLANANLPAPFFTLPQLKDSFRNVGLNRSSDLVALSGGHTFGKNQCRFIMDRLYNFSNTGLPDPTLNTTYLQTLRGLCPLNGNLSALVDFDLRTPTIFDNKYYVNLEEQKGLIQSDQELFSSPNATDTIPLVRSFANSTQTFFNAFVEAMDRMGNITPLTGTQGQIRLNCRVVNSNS

[2] = tested on: horseradish peroxidase (HRP); test: Inhibition of ABTS turnover catalyzed by a low amount of HRP (sandwich ELISA, non-induced Jurkat cell lysate); format: biochemical, horseradish (Armoracia rusticana); conditions: SDS 1% or 5%, high concentrations of oxalic acid or sulfuric acid
Description: FIG. 1, A and B: inhibition of ABTS turnover catalyzed by a low amount of HRP (detection of a low amount of mono- and oligosomes in Jurkat cells; further details are given in Example 1). The ordinate indicates absorbance. Groups of bars represent comparative measurements at time points after the addition of stop reagents as indicated: (‡)—control, ABTS solution incubated without HRP, no stop reagent added; (a) to (k)—ABTS solution incubated with HRP and subsequently mixed with stop reagent as indicated: […] Jurkat cells were cultured and subsequently divided into two culture dishes. In one dish the cells were treated with 1 μg/ml CAM (Camptothecin) to induce apoptosis, thereby leading to the formation of mono and oligonucleosomes, the target antigen. After an incubation period of 4 hours the cells of both dishes were harvested separately by centrifugation, lysed by the detergent contained in the Cell Death Detection ELISA Plus (Roche Diagnostics GmbH, Mannheim, Germany; Catalog No. 1920685), and frozen. The mono and oligonucleosomes consisting of DNA and histones H2A, H2B, H3 and H4 were detected in thawed cell homogenate by way of a sandwich ELISA. Antigen was captured with a first monoclonal antibody against histone from the Cell Death Detection ELISA Plus kit. The antibody was coated onto the walls of a 96-well microplate. The detection antibody was a DNA-specific polyclonal antibody conjugated with horseradish peroxidase. Non-induced and CAM-induced Jurkat cells yielded low and high amounts of target antigen, thereby leading to low and high absolute amounts of horseradish peroxidase enzymatic activity in the respective wells. Into each well of the 96-well microplate an aliquot of 100 μl of ABTS Solution (Roche Diagnostics GmbH, Mannheim, Germany; Roche Applied Science, product no. 11684302001) was added. After an incubation for 8 minutes at room temperature, 100 μl of either distilled water or a stop reagent as indicated in the legend to FIG. 1 was added.

[3] = tested on: horseradish peroxidase (HRP); test: Inhibition of ABTS turnover catalyzed by a high amount of HRP (sandwich ELISA, CAM-induced Jurkat cell lysate); format: biochemical, horseradish (Armoracia rusticana)
Description: FIG. 2, A and B: inhibition of ABTS turnover catalyzed by a high amount of HRP detection of a high amount of mono- and oligosomes in Jurkat cells; further details are given in Example 1. All other designations are the same as in FIG. 1. Jurkat cells were cultured and subsequently divided into two culture dishes. In one dish the cells were treated with 1 μg/ml CAM (Camptothecin) to induce apoptosis, thereby leading to the formation of mono and oligonucleosomes, the target antigen. After an incubation period of 4 hours the cells of both dishes were harvested separately by centrifugation, lysed by the detergent contained in the Cell Death Detection ELISA Plus (Roche Diagnostics GmbH, Mannheim, Germany; Catalog No. 1920685), and frozen. The mono and oligonucleosomes consisting of DNA and histones H2A, H2B, H3 and H4 were detected in thawed cell homogenate by way of a sandwich ELISA. Antigen was captured with a first monoclonal antibody against histone from the Cell Death Detection ELISA Plus kit. The antibody was coated onto the walls of a 96-well microplate. The detection antibody was a DNA-specific polyclonal antibody conjugated with horseradish peroxidase. Non-induced and CAM-induced Jurkat cells yielded low and high amounts of target antigen, thereby leading to low and high absolute amounts of horseradish peroxidase enzymatic activity in the respective wells. […]

HRP [4] = test: Inhibition of 1 mU of HRP activity using acidified SDS solution as stop reagent (ABTS); format: biochemical, horseradish (Armoracia rusticana); conditions: acidification of the reaction mixture to pH about 2.5 to 4.2; SDS final concentration between 0.25% and 2.5% weight by volume
Description: A solution of 5% [w/v] sodium dodecyl sulfate acidified with 0.25 M hydrochloric acid was used as a stop reagent to inhibit 1 mU peroxidase enzymatic activity of HRP. […] 100 μl of stop reagent were added.
Another experiment was performed in which two different SDS concentrations, 5% and 0.5% [w/v] in an acidified solution were compared.

[5] = Table 2b, 6 min, stop reagent added after 8 min incubation
[6] = Table 2b, 9 min, stop reagent added after 8 min
[7] = Table 2b, 15 min, stop reagent added after 8 min
[8] = Table 2b, 30 min, stop reagent added after 8 min
[9] = Table 2b, 45 min, stop reagent added after 8 min
[10] = Table 2b, 60 min, stop reagent added after 8 min
[11] = Table 2b, 180 min, stop reagent added after 8 min

Compound	Decoloration of the dye (HRP [1]; ABTS)	Absorbance at 405 nm (HRP [1]; [5])	Absorbance at 405 nm (HRP [1]; [6])	Absorbance at 405 nm (HRP [1]; [7])	Absorbance at 405 nm (HRP [1]; [8])	Absorbance at 405 nm (HRP [1]; [9])	Absorbance at 405 nm (HRP [1]; [10])	Absorbance at 405 nm (HRP [1]; [11])	Inhibition of the reaction (FIG. 1) [2]	other results
[Na+].[OH-] [(xiii), NaOH]	decoloration of the dye									Absorbance at 405 nm (HRP [1]; Table 2a, 6 min, stop reagent added after 8 min incubation): 1.036; Absorbance at 405 nm (HRP [1]; Table 2a, 9 min, stop reagent added after 8 min): 0.878; Absorbance at 405 nm (HRP [1]; Table 2a, 15 min, stop reagent added after 8 min): 0.027; Absorbance at 405 nm (HRP [1]; Table 2a, 30 min, stop reagent added after 8 min): 0.027; Absorbance at 405 nm (HRP [1]; Table 2a, 45 min, stop reagent added after 8 min): 0.027; Absorbance at 405 nm (HRP [1]; Table 2a, 60 min, stop reagent added after 8 min): 0.027; Absorbance at 405 nm (HRP [1]; Table 2a, 180 min, stop reagent added after 8 min): 0.026
[Na+].[Na+].[Na+].[O]=[V]([O-])([O-])[O-] [(vii), Sodium orthovanadate]	decoloration of the dye	1.173	0.115	0.096	0.089	0.088	0.092	0.100		
N#C[S-].[K+] [(xii), KSCN]	decoloration of the dye	1.179	1.207	1.290	1.201	1.086	0.989	0.849		
[Cl][Ni][Cl] [(ix), Nickel (II) chloride]		1.175	2.241	2.999	3.719	3.999	3.715	3.999		
O=S(=O)(O)O [sulfuric acid]									complete inhibition	
[F-].[Na+] [(viii), NaF]		1.176	1.343	1.424	1.572	1.721	1.818	2.107		Inhibition of HRP (in words) (HRP [1]; ABTS): affected inhibition, however only partially
CCCCCCCCCCCCOS(=O)(=O)[O-].[Na+] [SDS, sodium dodecyl sulfate]									complete inhibition	Inhibition of the high amount of HRP activity (FIG. 2) [3]: not able to inhibit completely; Inhibiting peroxidase enzymatic activity (in words) (HRP [4]): very effective
NC(=O)C(=O)[O-].[Na+] [(xi), Sodium Oxamate]		1.182	1.776	2.525	3.091	3.097	3.095	2.865		
O=C(O)C(=O)O [oxalic acid]									complete inhibition	Inhibition of the high amount of HRP activity (FIG. 2) [3]: not able to inhibit completely
